# Experimental data from publication PMC10285738, “Identification of macrocyclic peptides which activate bacterial cylindrical proteases” (RSC Medicinal Chemistry, 2023).
# Starred links: 1 amine or outer side, 2 acyl side, 3 side chain; linkers in the order of their positions; H or OH if unused. Positions of bridges follow the written chain, without caps; N, C: chain ends. Non-standard residues stand in square brackets, D forms with d. Residues, ends and D or L forms follow the SMILES beside them. Phe(3,5-F2) = N[C@@H](Cc1cc(F)cc(F)c1)C(=O)O; CH2COCH2 = O=C(C[*:1])C[*:2]
# Assays:
# [1] = two-component Cys/Cys stapling: bis-thiol-Michael addition to 4,6-divinylpyrimidine bearing N-methylglycine (constraint 1 = A), 1.1 equiv; TCEP 1.1 equiv added if the peptide had oxidised; conditions: the molecule shown is the open-chain precursor, 100 mM phosphate buffer pH 7.4 with DMSO from peptide and staple stocks, 2.8 mM, 22.0 °C, 2 steps
# [2] = two-component Cys/Cys stapling: bis-thioether alkylation with 1,3-dichloroacetone (B), 1.1 equiv; TCEP 1.1 equiv added if the peptide had oxidised; conditions: the molecule shown is the open-chain precursor, 100 mM phosphate buffer pH 7.4 with DMSO (peptide stock) and MeCN (staple stock), 2.7 mM, 22.0 °C, 2 steps
# Sa.ClpP = biological target: T1, Sa.ClpP (Staphylococcus aureus, UniProt Q2G036); assay: Thermal shift assay (differential scanning fluorimetry); format: binding; conditions: S. aureus ClpP 5 µM, ligand 200 µM, HEPES 100 mM pH 7, NaCl 150 mM, sypro orange 5x, 30-90 °C in 0.5 °C increments; mean ± SD of duplicates of at least two independent experiments
# T1 construct: Strep-tag (C); made in house; host or cells: E. coli SG1146a (lacks endogenous ClpP)
# T1 sequence (Q2G036 whole entry): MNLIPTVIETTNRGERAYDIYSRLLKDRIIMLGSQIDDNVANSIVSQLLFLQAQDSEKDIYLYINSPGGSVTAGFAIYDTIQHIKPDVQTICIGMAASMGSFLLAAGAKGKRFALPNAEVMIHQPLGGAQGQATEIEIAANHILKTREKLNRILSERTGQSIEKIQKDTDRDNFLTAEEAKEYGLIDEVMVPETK
# From the text: All concentrations are given as final concentrations. […]
# real-time qPCR (Bio-Rad CF X96).
# SD of duplicates of at least two independent experiments.
# equilibrated Superdex 200 Increase 10/300 GL column (Cytiva). […]
compound,measurement,setting,value
C=Cc1cc(CCSC[C@H](NC(C)=O)C(=O)NCC(=O)N[C@H](C(=O)NCC(=O)N[C@@H](C)C(=O)NCC(=O)N[C@@H](CS)C(N)=O)[C@@H](C)CC)nc(N(C)CC(=O)O)n1 [Ac-Cys-Gly-Ile-Gly-Ala-Gly-Cys-NH2],"ring closure, yield over several steps",[1]; 30-membered ring,90.6%
CC[C@H](C)[C@H](NC(=O)CNC(=O)[C@H](CSCC(=O)CCl)NC(C)=O)C(=O)NCC(=O)N[C@@H](C)C(=O)NCC(=O)N[C@@H](CS)C(N)=O [Ac-Cys-Gly-Ile-Gly-Ala-Gly-Cys-NH2],"ring closure, yield over several steps",[2]; 26-membered ring,18.4%
C=Cc1cc(CCSC[C@H](NC(C)=O)C(=O)NCC(=O)N[C@H](C(=O)NCC(=O)N[C@H](Cc2ccccc2)C(=O)NCC(=O)N[C@@H](CS)C(N)=O)[C@@H](C)CC)nc(N(C)CC(=O)O)n1 [Ac-Cys-Gly-Ile-Gly-D-Phe-Gly-Cys-NH2],"ring closure, yield over several steps",[1]; 30-membered ring,61%
CC[C@H](C)[C@H](NC(=O)CNC(=O)[C@H](CSCC(=O)CCl)NC(C)=O)C(=O)NCC(=O)N[C@H](Cc1ccccc1)C(=O)NCC(=O)N[C@@H](CS)C(N)=O [Ac-Cys-Gly-Ile-Gly-D-Phe-Gly-Cys-NH2],"ring closure, yield over several steps",[2]; 26-membered ring,46.6%
"C=Cc1cc(CCSC[C@H](NC(C)=O)C(=O)NCC(=O)N[C@H](C(=O)NCC(=O)N[C@@H](Cc2cc(F)cc(F)c2)C(=O)NCC(=O)N[C@@H](CS)C(N)=O)[C@@H](C)CC)nc(N(C)CC(=O)O)n1 [Ac-Cys-Gly-Ile-Gly-Phe(3,5-F2)-Gly-Cys-NH2]","ring closure, yield over several steps",[1]; 30-membered ring,14.1%
"CC[C@H](C)[C@H](NC(=O)CNC(=O)[C@H](CSCC(=O)CCl)NC(C)=O)C(=O)NCC(=O)N[C@@H](Cc1cc(F)cc(F)c1)C(=O)NCC(=O)N[C@@H](CS)C(N)=O [Ac-Cys-Gly-Ile-Gly-Phe(3,5-F2)-Gly-Cys-NH2]","ring closure, yield over several steps",[2]; 26-membered ring,43.3%
C=Cc1cc(CCSC[C@H](NC(C)=O)C(=O)NCC(=O)N[C@H](C(=O)NCC(=O)N[C@@H](Cc2ccccc2)C(=O)NCC(=O)N[C@@H](C)C(=O)N[C@@H](CS)C(N)=O)[C@@H](C)CC)nc(N(C)CC(=O)O)n1 [Ac-Cys-Gly-Ile-Gly-Phe-Gly-Ala-Cys-NH2],"ring closure, yield over several steps",[1]; 33-membered ring,46.2%
CC[C@H](C)[C@H](NC(=O)CNC(=O)[C@H](CSCC(=O)CCl)NC(C)=O)C(=O)NCC(=O)N[C@@H](Cc1ccccc1)C(=O)NCC(=O)N[C@@H](C)C(=O)N[C@@H](CS)C(N)=O [Ac-Cys-Gly-Ile-Gly-Phe-Gly-Ala-Cys-NH2],"ring closure, yield over several steps",[2]; 29-membered ring,48.3%
C=Cc1cc(CCSC[C@H](NC(C)=O)C(=O)NCC(=O)N[C@H](C(=O)NCC(=O)N[C@@H](Cc2ccccc2)C(=O)NCC(=O)N[C@@H](C)C(=O)N[C@H](C(=O)N[C@@H](CS)C(N)=O)[C@@H](C)O)[C@@H](C)CC)nc(N(C)CC(=O)O)n1 [Ac-Cys-Gly-Ile-Gly-Phe-Gly-Ala-Thr-Cys-NH2],"ring closure, yield over several steps",[1]; 36-membered ring,34.3%
CC[C@H](C)[C@H](NC(=O)CNC(=O)[C@H](CSCC(=O)CCl)NC(C)=O)C(=O)NCC(=O)N[C@@H](Cc1ccccc1)C(=O)NCC(=O)N[C@@H](C)C(=O)N[C@H](C(=O)N[C@@H](CS)C(N)=O)[C@@H](C)O [Ac-Cys-Gly-Ile-Gly-Phe-Gly-Ala-Thr-Cys-NH2],"ring closure, yield over several steps",[2]; 32-membered ring,19%
C=Cc1cc(CCSC[C@H](NC(C)=O)C(=O)NCC(=O)N[C@H](C(=O)NCC(=O)N[C@@H](Cc2ccccc2)C(=O)NCC(=O)N[C@@H](CS)C(N)=O)[C@@H](C)CC)nc(N(C)CC(=O)O)n1 [Ac-Cys-Gly-Ile-Gly-Phe-Gly-Cys-NH2],"ring closure, yield over several steps",[1]; 30-membered ring,6.8%
CC[C@H](C)[C@H](NC(=O)CNC(=O)[C@H](CSCC(=O)CCl)NC(C)=O)C(=O)NCC(=O)N[C@@H](Cc1ccccc1)C(=O)NCC(=O)N[C@@H](CS)C(N)=O [Ac-Cys-Gly-Ile-Gly-Phe-Gly-Cys-NH2],"ring closure, yield over several steps",[2]; 26-membered ring,27.3%
C=Cc1cc(CCSC[C@H](NC(C)=O)C(=O)N[C@H](C(=O)NCC(=O)N[C@@H](Cc2ccccc2)C(=O)NCC(=O)N[C@@H](C)C(=O)N[C@@H](CS)C(N)=O)[C@@H](C)CC)nc(N(C)CC(=O)O)n1 [Ac-Cys-Ile-Gly-Phe-Gly-Ala-Cys-NH2],"ring closure, yield over several steps",[1]; 30-membered ring,25.7%
CC[C@H](C)[C@H](NC(=O)[C@H](CSCC(=O)CCl)NC(C)=O)C(=O)NCC(=O)N[C@@H](Cc1ccccc1)C(=O)NCC(=O)N[C@@H](C)C(=O)N[C@@H](CS)C(N)=O [Ac-Cys-Ile-Gly-Phe-Gly-Ala-Cys-NH2],"ring closure, yield over several steps",[2]; 26-membered ring,13.5%
C=Cc1cc(CCSC[C@H](NC(C)=O)C(=O)N[C@H](C(=O)NCC(=O)N[C@@H](Cc2ccccc2)C(=O)NCC(=O)N[C@@H](C)C(=O)N[C@H](C(=O)N[C@@H](CS)C(N)=O)[C@@H](C)O)[C@@H](C)CC)nc(N(C)CC(=O)O)n1 [Ac-Cys-Ile-Gly-Phe-Gly-Ala-Thr-Cys-NH2],"ring closure, yield over several steps",[1]; 33-membered ring,20.5%
CC[C@H](C)[C@H](NC(=O)[C@H](CSCC(=O)CCl)NC(C)=O)C(=O)NCC(=O)N[C@@H](Cc1ccccc1)C(=O)NCC(=O)N[C@@H](C)C(=O)N[C@H](C(=O)N[C@@H](CS)C(N)=O)[C@@H](C)O [Ac-Cys-Ile-Gly-Phe-Gly-Ala-Thr-Cys-NH2],"ring closure, yield over several steps",[2]; 29-membered ring,55.3%
C=Cc1cc(CCSC[C@H](NC(C)=O)C(=O)N[C@H](C(=O)NCC(=O)N[C@@H](Cc2ccccc2)C(=O)NCC(=O)N[C@@H](CS)C(N)=O)[C@@H](C)CC)nc(N(C)CC(=O)O)n1 [Ac-Cys-Ile-Gly-Phe-Gly-Cys-NH2],"ring closure, yield over several steps",[1]; 27-membered ring,75.6%
"CC[C@H](C)[C@@H]1NC(=O)CNC(=O)[C@@H](NC(C)=O)CSCC(=O)CSC[C@@H](C(N)=O)NC(=O)CNC(=O)[C@H](Cc2cc(F)cc(F)c2)NC(=O)CNC1=O [P9-B] (Ac-CGIG[Phe(3,5-F2)]GC-NH2; linker 1-7 via CH2COCH2)",apparent increase in melting temperature of Sa.ClpP,Sa.ClpP,1.1 ± 0.2 °C
